Laboratory results published in ChEMBL document CHEMBL1201862, “PubChem BioAssay data set” (2004).
Calls of active or inactive are those of the source. For most assays here, no stated cut-off is given here; in the data, actives have a measured IC50 and inactives only a lower limit.

What was measured:
[1] = biological target: T1, Dual specificity protein phosphatase 3 (Homo sapiens, UniProt P51452); experiment: SAR VHR1 Fluorescent Assay for In Vitro dose response studies. [Related pubchem assays (depositor defined):AID1654, AID1661, AID1878, AID1992, AID2004, AID2070, AID2085]; assay type: functional
[2] = biological target: T2, Dual specificity protein phosphatase 6 (Rattus norvegicus, UniProt Q64346); assay type: functional;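 further: confirmatory in vitro dose-response testing of MKP-3 inhibition; recombinant His-tagged MKP-3 made in E. coli BL21 with OMFP substrate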
T2 sequence (Q64346 whole entry): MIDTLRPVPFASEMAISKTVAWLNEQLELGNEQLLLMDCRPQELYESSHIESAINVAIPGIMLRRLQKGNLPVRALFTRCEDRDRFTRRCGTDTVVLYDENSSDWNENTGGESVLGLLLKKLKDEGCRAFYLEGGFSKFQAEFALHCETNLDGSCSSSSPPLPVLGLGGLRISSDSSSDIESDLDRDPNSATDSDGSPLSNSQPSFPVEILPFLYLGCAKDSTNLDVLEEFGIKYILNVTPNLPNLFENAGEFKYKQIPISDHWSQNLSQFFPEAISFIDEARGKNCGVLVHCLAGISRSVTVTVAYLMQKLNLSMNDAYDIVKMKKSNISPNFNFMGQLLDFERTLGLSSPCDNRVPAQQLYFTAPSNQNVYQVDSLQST

[3] = biological target: T3, Tyrosine-protein phosphatase non-receptor type 7 (Homo sapiens, UniProt P35236); experiment: redox-active compounds inhibiting HePTP phosphatase – biochemical, fluorescence, mechanism study (AID 2068); assay type: functional
T3 sequence (P35236 whole entry): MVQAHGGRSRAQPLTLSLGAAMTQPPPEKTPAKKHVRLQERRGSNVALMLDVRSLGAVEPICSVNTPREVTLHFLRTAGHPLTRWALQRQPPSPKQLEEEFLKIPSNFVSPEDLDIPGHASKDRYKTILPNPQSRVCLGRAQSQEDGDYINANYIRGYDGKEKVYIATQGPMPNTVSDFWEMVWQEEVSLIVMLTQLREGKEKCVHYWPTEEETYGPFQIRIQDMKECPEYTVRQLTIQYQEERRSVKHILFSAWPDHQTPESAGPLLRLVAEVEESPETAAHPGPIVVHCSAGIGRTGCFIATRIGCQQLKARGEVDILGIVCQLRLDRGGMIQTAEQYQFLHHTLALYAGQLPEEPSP

[4] = biological target: T1, Dual specificity protein phosphatase 3; experiment: SAR VHR1 absorbance Assay for In Vitro dose response studies. [Related pubchem assays (depositor defined):AID1654, AID1661, AID1878, AID1992, AID2004]
[5] = biological target: G-protein coupled receptor 55 (Homo sapiens, UniProt Q9Y2T6); experiment: SAR Analysis of Selective Antagonists of GPR55 using an Image-Based Assay - Set 3. [Related pubchem assays (depositor defined):AID2058, AID2079]; assay type: functional
[6] = biological target: G-protein coupled receptor 35 (Homo sapiens, UniProt Q9HC97); experiment: SAR analysis of Antagonists of the GPR35 Receptor using an Image-Based Assay - Set 5. [Related pubchem assays (depositor defined):AID2058, AID2079]; assay type: functional
[7] = biological target: DNA dC->dU-editing enzyme APOBEC-3G (Homo sapiens, UniProt Q9HC16); experiment: Dose Response confirmation of small molecule APOBEC3G DNA Deaminase Inhibitors via a fluorescence-based single-stranded DNA deaminase assay. [Related pubchem assays (depositor defined):AID493012, AID493028]; assay type: functional
Troponin, cardiac muscle = Troponin, cardiac muscle (Homo sapiens, UniProt P19429+P45379+P63316); experiment: Fluorescence-based biochemical high throughput dose response assay for activators of the calcium sensitivity of cardiac Regulated Thin Filaments (RTF). [Related pubchem assays (depositor defined):AID493008, AID493018, AID504382, AID504383]; assay type: protein-complex assay
Large T antigen = Large T antigen (Simian virus 40, UniProt P03070); assay type: functional, Betapolyomavirus macacae;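 further: Confirmatory-stage PubChem screen for compounds that inhibit SV40 T antigen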
[8] = biological target: DNA dC->dU-editing enzyme APOBEC-3A (Homo sapiens, UniProt P31941); experiment: A3A deaminase inhibition for selectivity – biochemical, dose response (AID 504722); assay type: functional
Chain of DNA dC->dU-editing enzyme APOBEC-3A (P31941 whole entry): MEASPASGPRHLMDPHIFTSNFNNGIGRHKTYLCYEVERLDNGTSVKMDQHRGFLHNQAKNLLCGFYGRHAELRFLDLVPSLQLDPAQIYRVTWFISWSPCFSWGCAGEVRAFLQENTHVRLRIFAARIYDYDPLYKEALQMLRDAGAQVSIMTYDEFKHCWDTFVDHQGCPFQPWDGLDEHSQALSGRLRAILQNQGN

T1 sequence (P51452 whole entry): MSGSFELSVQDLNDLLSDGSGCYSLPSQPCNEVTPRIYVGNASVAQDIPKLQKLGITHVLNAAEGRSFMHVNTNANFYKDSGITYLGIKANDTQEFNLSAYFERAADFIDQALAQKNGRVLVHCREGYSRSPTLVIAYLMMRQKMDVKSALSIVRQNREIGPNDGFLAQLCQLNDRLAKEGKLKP
Chain of G-protein coupled receptor 35 (Q9HC97 whole entry): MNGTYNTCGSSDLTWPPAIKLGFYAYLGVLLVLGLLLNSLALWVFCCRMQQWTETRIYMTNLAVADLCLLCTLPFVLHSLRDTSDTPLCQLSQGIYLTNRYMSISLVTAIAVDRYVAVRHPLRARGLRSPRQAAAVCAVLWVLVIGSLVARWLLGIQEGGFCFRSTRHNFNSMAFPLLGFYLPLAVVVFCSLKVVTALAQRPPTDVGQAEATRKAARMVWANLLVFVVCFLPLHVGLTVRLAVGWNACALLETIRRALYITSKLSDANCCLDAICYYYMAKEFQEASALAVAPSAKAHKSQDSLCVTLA
Chain of DNA dC->dU-editing enzyme APOBEC-3G (Q9HC16 whole entry): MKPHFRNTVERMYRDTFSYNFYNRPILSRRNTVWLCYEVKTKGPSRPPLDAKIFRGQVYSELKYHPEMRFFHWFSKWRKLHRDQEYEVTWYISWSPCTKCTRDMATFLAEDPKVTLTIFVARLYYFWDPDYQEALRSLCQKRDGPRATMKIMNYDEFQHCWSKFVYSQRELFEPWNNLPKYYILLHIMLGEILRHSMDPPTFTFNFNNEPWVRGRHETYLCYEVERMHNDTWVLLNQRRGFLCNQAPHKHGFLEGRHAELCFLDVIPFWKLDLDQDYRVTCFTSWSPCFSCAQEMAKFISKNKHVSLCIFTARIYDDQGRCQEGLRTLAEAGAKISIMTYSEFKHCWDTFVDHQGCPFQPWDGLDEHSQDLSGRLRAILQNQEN
Chain of G-protein coupled receptor 55 (Q9Y2T6 whole entry): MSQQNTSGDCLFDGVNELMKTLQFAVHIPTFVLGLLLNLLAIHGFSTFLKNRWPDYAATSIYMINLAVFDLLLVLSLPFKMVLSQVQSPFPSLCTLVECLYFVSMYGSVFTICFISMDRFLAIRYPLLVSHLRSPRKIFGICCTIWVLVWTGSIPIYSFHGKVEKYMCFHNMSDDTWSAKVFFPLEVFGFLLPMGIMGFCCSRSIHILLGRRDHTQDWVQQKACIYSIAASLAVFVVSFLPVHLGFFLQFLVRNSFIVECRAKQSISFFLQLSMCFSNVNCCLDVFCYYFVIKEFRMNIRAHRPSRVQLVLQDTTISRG
Chain of Large T antigen (P03070 whole entry): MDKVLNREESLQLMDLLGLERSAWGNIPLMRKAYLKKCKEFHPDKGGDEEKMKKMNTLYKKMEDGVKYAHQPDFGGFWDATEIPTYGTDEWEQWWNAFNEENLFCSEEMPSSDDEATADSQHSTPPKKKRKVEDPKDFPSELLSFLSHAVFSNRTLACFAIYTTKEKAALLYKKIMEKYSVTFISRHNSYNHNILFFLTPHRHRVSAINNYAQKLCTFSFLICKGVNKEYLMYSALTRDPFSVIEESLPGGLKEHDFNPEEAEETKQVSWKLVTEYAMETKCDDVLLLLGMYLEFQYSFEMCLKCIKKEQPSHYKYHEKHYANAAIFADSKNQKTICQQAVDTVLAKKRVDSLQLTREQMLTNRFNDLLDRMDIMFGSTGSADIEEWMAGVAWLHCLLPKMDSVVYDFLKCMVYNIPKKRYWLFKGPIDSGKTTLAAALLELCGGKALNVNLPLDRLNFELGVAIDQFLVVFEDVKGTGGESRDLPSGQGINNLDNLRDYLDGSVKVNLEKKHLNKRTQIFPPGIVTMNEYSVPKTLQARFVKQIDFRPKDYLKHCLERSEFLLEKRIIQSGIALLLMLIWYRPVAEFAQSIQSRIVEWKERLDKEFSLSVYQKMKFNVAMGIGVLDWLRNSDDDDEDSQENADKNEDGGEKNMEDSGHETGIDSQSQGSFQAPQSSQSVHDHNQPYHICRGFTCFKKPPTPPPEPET

Compound: S=C(c1cn(CCOc2ccccc2)c2ccccc12)N1CCOCC1
- IC50 [1]: > 99 µM (inactive)
- IC50 [2]: > 99 µM (inactive)
- IC50 [3]: 2.35 µM (active)
- IC50 [4]: > 100 µM (inactive)

Compound: COc1ccc(-c2n[nH]cc2/C=N/NC(=S)NC(C)(C)C)cc1
- IC50 [5]: 16.4 µM (inactive)
- IC50 [6]: > 32 µM (inactive)

Compound: Cc1cccc(/C=N/n2c(S)nnc2-c2ccncc2)c1
- IC50 [7]: 2.62 µM (active)
- EC50 (Troponin, cardiac muscle): > 71.5 µM (inactive)
- IC50 (Large T antigen): 43.7 µM (active)
- IC50 [8]: > 100 µM (inactive)
